Data set [1] deals with mouse. The note with it: Sub-acute repeat dose toxicity; b6c3f1; Oral; Gavage/Intubation; dose end: 14 day; group: systemic; systemic / in life observation / clinical signs / distended abdomens + systemic / in life observation / clinical signs / fur (altered ….
Data set [2] relates to dog. The settings on record: Subchronic oral toxicity in nonrodent, beagle, Gavage/Intubation, dose end: 1 month, group: systemic.
Data set [3] concerns rat. The settings on record: Sub-acute repeat dose toxicity; sprague dawley; Oral; Gavage/Intubation; dose end: 1 month; group: systemic; systemic / clinical chemistry / protein / protein + systemic / clinical chemistry / alanine aminotransferase (alt/sgpt) / alanine ….
Data set [4] has as its system dog. The note with it: Chronic toxicity, beagle, Oral, Gavage/Intubation, dose end: 26 week, group: systemic.
For a further data set, the system named is primate. The settings on record: Sub-acute repeat dose toxicity; macaque; Oral; Gavage/Intubation; dose end: 35 day; group: systemic; systemic / clinical chemistry / bilirubin / total bilirubin.
For data set [5], the system named is rat. The settings on record: Fertility (Segment I), sprague dawley, Oral, Gavage/Intubation, dose end: 63 day, group: parental.
Data set [6] has as its system rat. The settings on record: Fertility (Segment I), sprague dawley, Oral, Gavage/Intubation, dose end: 6 GD.
Data set [7] relates to rat. The note with it: Chronic toxicity; sprague dawley; Oral; Gavage/Intubation; dose end: 26 week; group: systemic; systemic / clinical chemistry / alanine aminotransferase (alt/sgpt) / alanine aminotransferase (alt/sgpt) + systemic / clinical chemistry / ….
Data set [8] concerns mouse. The settings on record: Subchronic oral toxicity in rodents, b6c3f1, Gavage/Intubation, dose end: 13 week, group: systemic, systemic / pathology microscopic / kidney / fibrosis + systemic / pathology microscopic / kidney / inflammation + systemic / pathology ….
Data set [9] concerns rat. The settings on record: Combined chronic toxicity/carcinogenicity; fischer; Oral; Gavage/Intubation; dose end: 2 year; group: systemic; systemic / pathology microscopic / kidney / cyst + systemic / pathology microscopic / kidney / hyperplasia + systemic / pathology ….
Data set [10] concerns rat. The settings on record: Subchronic oral toxicity in rodents, fischer, Gavage/Intubation, dose end: 13 week, group: systemic.
The test system of data set [11] is mouse. The note with it: Carcinogenicity, b6c3f1, Oral, Gavage/Intubation, dose end: 2 year, group: systemic.
Data set [12] concerns rat. The settings on record: Subchronic oral toxicity in rodents, fischer, Feed, dose end: 13 week.
Data set [13] deals with mouse. The note with it: Carcinogenicity, b6c3f1, Oral, Feed, dose end: 105 week, group: systemic.
For data set [14], the system named is mouse. The settings on record: Subchronic oral toxicity in rodents, b6c3f1, Feed, dose end: 13 week, group: systemic.
Data set [15] relates to rat. The settings on record: Subchronic dermal toxicity, sprague dawley, Topical, dose end: 90 day, group: systemic, systemic / pathology microscopic / liver / hypertrophy.
For data set [16], the system named is rat. The note with it: Prenatal developmental toxicity study, sprague dawley, Oral, Gavage/Intubation, dose end: 15 GD.
The test system of data set [17] is rat. The settings on record: Subchronic oral toxicity in rodents, sprague dawley, Gavage/Intubation, dose end: 90 day, group: systemic, systemic / in life observation / body weight / body weight + systemic / in life observation / body weight / body weight gain.
Setting [18] is: systemic / in life observation / body weight / body weight + systemic / organ weight / thymus / relative to body weight.
The mark [19] stands for this setting: systemic / in life observation / body weight / body weight + systemic / organ weight / thymus / relative to body weight + systemic / ….
[20] abbreviates: systemic / organ weight / adrenal gland / absolute + systemic / organ weight / adrenal gland / relative to body weight.
Where [21] appears, read: systemic / organ weight / adrenal gland / absolute + systemic / organ weight / adrenal gland / relative to body weight + systemic / clinical….
[22] abbreviates: systemic / in life observation / body weight / body weight + systemic / in life observation / body weight / body weight gain + systemic / in….
Where [23] appears, read: group: maternal, reproductive / reproductive performance / estrous cycle / abnormal.
Where [24] appears, read: group: parental, systemic / in life observation / body weight / body weight gain + systemic / in life observation / clinical signs / salivation + systemic / ….
The mark [25] stands for this setting: systemic / in life observation / clinical signs / motor activity + systemic / in life observation / body weight / body weight + systemic / ….
Where [26] appears, read: systemic / in life observation / clinical signs / salivation.
[27] abbreviates: systemic / pathology microscopic / lung / hyperplasia.
Where [28] appears, read: systemic / pathology microscopic / lung / hyperplasia + systemic / pathology microscopic / liver / adenoma + systemic / pathology ….
Setting [29] is: group: developmental, developmental / offspring survival late / [other] / [other].
[30] abbreviates: group: maternal, reproductive / offspring survival early / birth index / birth index.
Setting [31] is: group: maternal, reproductive / reproductive performance / estrous cycle / length.
Where [32] appears, read: group: systemic, systemic / pathology microscopic / spleen / hemosiderosis + systemic / in life observation / clinical signs / fur (altered appearance).
[33] abbreviates: systemic / in life observation / body weight / body weight + systemic / hematology / reticulocyte / reticulocyte.
Where [34] appears, read: systemic / in life observation / body weight / body weight + systemic / in life observation / body weight / body weight gain + systemic / ….
Setting [35] is: group: developmental, developmental / developmental malformation / bone / [other] + systemic / in life observation / body weight / fetal weight.
The mark [36] stands for this setting: group: maternal, systemic / in life observation / body weight / body weight gain + systemic / in life observation / food consumption / food consumption.
The mark [37] stands for this setting: group: maternal, systemic / in life observation / body weight / body weight gain + systemic / in life observation / food consumption / food consumption + ….

`O=C(O)c1ccccc1` [Benzoic acid]: in the data set on mouse [1], the LEL was found to be 642 mg/kg/day, the lowest observed adverse effect level (LOAEL) is above 642 mg/kg/day, the NEL came to 321 mg/kg/day and the NOAEL was at least 642 mg/kg/day.
As to `Cc1cc2c(cc1C(F)(F)F)N(C(=O)Nc1ccc(Oc3cccnc3C)nc1)CC2.Cl`, the LEL turned out to be 2 mg/kg/day in the data set on dog [2] (setting [18]); 2 mg/kg/day with rat [3]; 2 mg/kg/day in the data set with dog [4] (setting [20]); 1000 mg/kg/day in the data set on primate; 20 mg/kg/day in the data set on rat [5] (systemic / in life observation / body weight / body weight gain); 20 mg/kg/day in the data set on rat [6] (setting [23]). In addition, the LEL in the data set with rat [6] (setting [24]) and in the data set on rat [7] was 2 mg/kg/day throughout. Moreover, the NEL in the data set on dog [2] (setting [18]) was below 2 mg/kg/day; with rat [3] it was below 2 mg/kg/day; in the data set on dog [4] (setting [20]), below 2 mg/kg/day; with primate, 300 mg/kg/day; with rat [5] (setting [22]) it was 2 mg/kg/day; in the data set with rat [6] (setting [23]), 2 mg/kg/day. Besides, the results for the NEL in the data set on rat [6] (setting [24]) and in the data set on rat [7] were 0.2 mg/kg/day and below 2 mg/kg/day, respectively. The LOAEL in the data set on dog [2] (setting [19]) was above 1000 mg/kg/day; in the data set on rat [3], above 200 mg/kg/day; with dog [4] (setting [21]), above 300 mg/kg/day; with primate, above 1000 mg/kg/day; with rat [5] (setting [22]), above 200 mg/kg/day; in the data set with rat [6] (setting [23]), above 20 mg/kg/day. Further, the lowest-observed-adverse-effect level (LOAEL) is above 20 mg/kg/day in the data set with rat [6] (setting [24]) and above 100 mg/kg/day with rat [7]. In addition, the no-observed-adverse-effect level (NOAEL) is at least 1000 mg/kg/day in the data set with dog [2] (setting [19]); at least 200 mg/kg/day in the data set on rat [3]; at least 300 mg/kg/day with dog [4] (setting [21]); at least 1000 mg/kg/day with primate; at least 200 mg/kg/day with rat [5] (setting [22]); at least 20 mg/kg/day in the data set on rat [6] (setting [23]). Also, the NOAEL in the data set on rat [6] (setting [24]) was at least 20 mg/kg/day; in the data set with rat [7], at least 100 mg/kg/day.
On to `c1ccc2occc2c1` [2,3-Benzofuran], for which the LEL amounted to 250 mg/kg/day in the data set with mouse [8], 30 mg/kg/day in the data set with rat [9], 31.2 mg/kg/day in the data set on rat [10] (setting [26]) and 60 mg/kg/day in the data set on mouse [11] (setting [28]). The lowest-observed-adverse-effect level (LOAEL) with mouse [8] came to 250 mg/kg/day; with rat [9], 30 mg/kg/day; with rat [10] (setting [25]), 125 mg/kg/day; with mouse [11] (setting [27]), 60 mg/kg/day. In addition, the NEL is 125 mg/kg/day with mouse [8], below 30 mg/kg/day with rat [9], below 31.2 mg/kg/day with rat [10] (setting [26]) and below 60 mg/kg/day in the data set with mouse [11] (setting [28]). Further, the no-observed-adverse-effect level (NOAEL) was 125 mg/kg/day with mouse [8], below 30 mg/kg/day in the data set with rat [9], 62.5 mg/kg/day with rat [10] (setting [25]) and below 60 mg/kg/day in the data set with mouse [11] (setting [27]).
On to `CC(C)(C)c1cc(O)ccc1O` [tert-Butylhydroquinone], for which the LEL in the data set with rat [12] (setting [29]) was 750 mg/kg/day; in the data set on rat [12] (setting [31]) it was 200 mg/kg/day; with rat [12] (setting [32]), 200 mg/kg/day; in the data set on mouse [13] (setting [33]), 600 mg/kg/day; with mouse [14] (setting [34]), 1950 mg/kg/day. For the same compound, the NEL with rat [12] (setting [29]) is 400 mg/kg/day; with rat [12] (setting [31]), below 200 mg/kg/day; in the data set with rat [12] (setting [32]) it was below 200 mg/kg/day; in the data set on mouse [13] (setting [33]), 300 mg/kg/day; with mouse [14] (setting [34]), 880 mg/kg/day. Further, the LOAEL in the data set with rat [12] (setting [30]) turned out to be 1000 mg/kg/day; in the data set with rat [12] (group: systemic, systemic / in life observation / body weight / body weight + systemic / in life observation / body weight / offspring (pup) weight), 400 mg/kg/day; with mouse [13] (systemic / in life observation / body weight / body weight), 600 mg/kg/day; with mouse [14] (systemic / in life observation / body weight / body weight + systemic / in life observation / body weight / body weight gain), 1950 mg/kg/day. For the same compound, the no-observed-adverse-effect level (NOAEL) in the data set with rat [12] (setting [30]) came out at 500 mg/kg/day; in the data set on rat [12] (group: systemic, systemic / in life observation / body weight / body weight + systemic / in life observation / body weight / offspring (pup) weight + …), 200 mg/kg/day; in the data set with mouse [13] (setting [33]), 300 mg/kg/day; with mouse [14] (setting [34]), 880 mg/kg/day.
With `CC(=O)N(CCN(C(C)=O)C(C)=O)C(C)=O` [Tetraacetylethylenediamine], the LEL was determined as 2000 mg/kg/day with rat [15], 1000 mg/kg/day in the data set with rat [16] (setting [35]), 200 mg/kg/day in the data set with rat [16] (setting [36]) and 25 mg/kg/day in the data set on rat [17]. The LOAEL with rat [15] is above 2000 mg/kg/day; in the data set on rat [16] (setting [35]) it was 1000 mg/kg/day; in the data set with rat [16] (setting [36]), 200 mg/kg/day; in the data set with rat [17] it was 25 mg/kg/day. The NEL in the data set with rat [15] is 200 mg/kg/day; with rat [16] (setting [35]), 200 mg/kg/day; in the data set on rat [16] (setting [37]) it was 40 mg/kg/day; in the data set with rat [17], below 25 mg/kg/day. Besides, the no-observed-adverse-effect level (NOAEL) in the data set with rat [15] is at least 2000 mg/kg/day; with rat [16] (setting [35]), 200 mg/kg/day; in the data set on rat [16] (setting [37]), 40 mg/kg/day; in the data set on rat [17], below 25 mg/kg/day.

For the origin of these results see EPA's ToxRefDB 2.
